Measurements reported in US20180353501A1 (Arvinas, Inc., priority 2017, published 2018).

Target: T1, p38δ (Homo sapiens, UniProt O15264)
T1 construct: endogenous in cells; host or cells: MDA-MB-231 (intact cells for degradation; cleared cell lysate for CETSA)
T1 sequence (O15264 1-365): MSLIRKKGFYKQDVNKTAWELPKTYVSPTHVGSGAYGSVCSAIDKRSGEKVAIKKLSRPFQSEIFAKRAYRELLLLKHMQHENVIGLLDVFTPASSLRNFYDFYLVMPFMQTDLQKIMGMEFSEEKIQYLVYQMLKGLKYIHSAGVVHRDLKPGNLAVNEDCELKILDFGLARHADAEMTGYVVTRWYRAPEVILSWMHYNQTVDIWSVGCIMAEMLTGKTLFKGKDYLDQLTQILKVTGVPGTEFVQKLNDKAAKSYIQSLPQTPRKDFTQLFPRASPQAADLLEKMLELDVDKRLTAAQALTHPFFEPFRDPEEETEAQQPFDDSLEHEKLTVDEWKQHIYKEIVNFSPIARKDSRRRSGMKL
Assay: Cellular thermal shift assay (CETSA), MDA-MB-231 cell lysate
Assay type: cell-based
Conditions: 100 μM, 30 minutes, 51-55° C., vs DMSO
Procedure: FIGS. 17A and 17B. […] (A) Cellular thermal shift assay (CETSA) was conducted in MDA-MB-231 cells as a means to monitor cellular target engagement. Cell lysate was incubated with either vehicle (DMSO), exemplary compound 50 (100 μM), or exemplary compound 46 (100 μM) for 30 minutes prior to melting at the indicated temperatures. Assay was performed in duplicate and western blots of p38δ and α-tubulin (negative control) are shown. (B) Raw band intensities from (A) were measured, averaged, and reported (with SD) with increasing temperature (51-55° C.) from left-to-right. Top: p38δ CETSA analysis. […] Bottom: α-tubulin CETSA analysis.
To further assess these findings, a more biologically-relevant context for measuring ternary complex formation was used. […] Thus, whether PROTAC-induced PPIs could be monitored in a complex cellular environment using CETSA was examined. […]
CETSA protocol was adapted from (Mateus A, Maatta T A, & Savitski M M (2016) Thermal proteome profiling: unbiased assessment of protein state through heat-induced stability changes. Proteome Sci 15:13). […] After cooling, samples were spun down for 20 minutes (14,000×g at 4° C.) and the supernatant (soluble fraction) was analyzed by SDS-PAGE and immunoblotted for p38δ and alpha-tubulin (negative control).

| Structure (SMILES) | thermal shift in the p38δ melting profile |
| --- | --- |
| COc1cc2c(Oc3ccc(NC(=O)C4(C(=O)Nc5ccc(F)cc5)CC4)cc3F)ccnc2cc1OCCOCCOCCOc1cc(-c2scnc2C)ccc1CNC(=O)[C@@H]1C[C@@H](O)CN1C(=O)[C@H](C(C)C)N1Cc2ccccc2C1=O [compound 46] | more pronounced at each melting temperature tested |
| COc1cc2c(Oc3ccc(NC(=O)C4(C(=O)Nc5ccc(F)cc5)CC4)cc3F)ccnc2cc1OCCCCOCCCCOCC(=O)N[C@H](C(=O)N1C[C@H](O)C[C@H]1C(=O)NCc1ccc(-c2scnc2C)cc1)C(C)(C)C [compound 50, N-(3-fluoro-4-((7-(4-(4-(2-(((S)-1-((2S,4R)-4-hydroxy-2-((4-(4-methylthiazol-5-yl)benzyl)carbamoyl)pyrrolidin-1-yl)-3,3-dimethyl-1-oxobutan-2-yl)amino)-2-oxoethoxy)butoxy)buto-xy)-6-methoxyquinolin-4-yl)oxy)phenyl)-N-(4-fluorophenyl)cyclopropane-1,1-dicarboxa-mide] | small, but statistically-significant (p=0.0121) thermal shift |
